# Patent US7524503B2, “Human cytomegalovirus (HCMV) cytotoxic T cell epitopes, polyepitopes compositions comprising same and diagnostic and prophylactic and therapeutic uses therefor” (priority 2001, dated 2009)
# What was measured:
# Format in all cases: cell-based, human
# HLA B27 = assay: MHC stabilization assay on T2 cells; conditions: HLA B27 on transfected T2 cells; relative increase vs no peptide at 26° C.
# [1] = tested on: PBMC from healthy HCMV seropositive donors; assay: IFN-γ ELISPOT assay; conditions: peptide 10 μg/ml
# How it was run: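 IFN-γ-secreting T cells were counted as spots, with no-peptide control wells subtracted and means taken from triplicate wells. These spots came from healthy seropositive carriers' PBMC, 2.5×10^5 per well.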
# [2] = tested on: peptide-sensitized autologous PHA blasts or LCLs; set-up: key to CTL response: Y: Yes; ND: Not detected; conditions: predicted epitopes, Table 3
# HLA B8 = assay: MHC stabilization assay on T2 cells; conditions: HLA B8 on transfected T2 cells; relative increase vs no peptide at 26° C.
Sequence,MSE (MHC stabilization efficiency) (HLA B27),other results
YRIQGKLEY,− (− = 0-50%),ELISPOT Responses (SFC/10^6 PBMC) ([1]; donor sixteen): TC(307) SFC/10^6 PBMC
ARVYEIKCR (human cytomegalovirus pp28 CTL epitope peptide),− (− = 0-50%),ELISPOT Responses (SFC/10^6 PBMC) ([1]; donor fourteen): RK(148) SFC/10^6 PBMC; CTL response [2]: Y
RRKMMYMCY (human cytomegalovirus IE1 CTL epitope peptide),+ (+ = 51-99%),
RRIEEICMK (human cytomegalovirus IE1 CTL epitope peptide) [reference compound],− (− = 0-50%),
TRVKRNVKK (human cytomegalovirus pp50 CTL epitope peptide),− (− = 0-50%),
RRRHRQDAL,++ (++ = 100-199%),MSE (MHC stabilization efficiency) (HLA B8): + (+ = 51-99%); ELISPOT Responses (SFC/10^6 PBMC) ([1]; donor eleven): 215 SFC/10^6 PBMC; ELISPOT Responses (SFC/10^6 PBMC) ([1]; donor sixteen): 71 SFC/10^6 PBMC
RRDHSLERL (human cytomegalovirus gH CTL epitope peptide),− (− = 0-50%),
CRYKYLRKK (human cytomegalovirus pp28 CTL epitope peptide),− (− = 0-50%),
GRCQMLDRR (human cytomegalovirus gH CTL epitope peptide),− (− = 0-50%),
